Measurements from the supplement of paper PMC13386468.
pIC50: −log10 of the molar value.

Legend:
Assay in all cases: IC50 for competition of protein binding to Kinobeads
Conditions in all cases: assay detail: Kinobeads competition in P. falciparum blood-stage lysate
[1] = target: UniProt C0H4A6
[2] = target: UniProt C0H4M6
[3] = target: UniProt C0H516
[4] = target: UniProt C0H571
[5] = target: UniProt C6KSW5
[6] = target: UniProt C6KTB1
[7] = target: UniProt C6S3E1
[8] = target: UniProt O15770
[9] = target: UniProt O77330
[10] = target: UniProt O77361
[11] = target: UniProt O77390
[12] = target: UniProt O97240
[13] = target: UniProt O97285
[14] = target: UniProt P62344
[15] = target: UniProt Q7KQK0
[16] = target: UniProt Q7KQL8
[17] = target: UniProt Q7KQM0
[18] = target: UniProt Q8I0U8
[19] = target: UniProt Q8I0V3
[20] = target: UniProt Q8I249
[21] = target: UniProt Q8I2J3
[22] = target: UniProt Q8I2J4
[23] = target: UniProt Q8I2W2
[24] = target: UniProt Q8I3J5
[25] = target: UniProt Q8I3L4
[26] = target: UniProt Q8I442
[27] = target: UniProt Q8I4Z4
[28] = target: UniProt Q8I5V9
[29] = target: UniProt Q8I616
[30] = target: UniProt Q8IAK9
[31] = target: UniProt Q8IAW7
[32] = target: UniProt Q8ID43
[33] = target: UniProt Q8IDB0
[34] = target: UniProt Q8IDF0
[35] = target: UniProt Q8IDV0
[36] = target: UniProt Q8IE43
[37] = target: UniProt Q8IE76
[38] = target: UniProt Q8II13
[39] = target: UniProt Q8II73
[40] = target: UniProt Q8IIF0
[41] = target: UniProt Q8IIF4
[42] = target: UniProt Q8IJ72
[43] = target: UniProt Q8IJ74
[44] = target: UniProt Q8IJT8
[45] = target: UniProt Q8IKV6
[46] = target: UniProt Q8IKZ6
[47] = target: UniProt Q8IL57
[48] = target: UniProt Q8IL86
[49] = target: UniProt Q8ILA4
[50] = target: UniProt Q8ILP3
[51] = target: UniProt Q9TY95

Measured: pIC50
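Further: native unpurified kinases from lysate captured on beads bearing immobilized kinase inhibitors, with bead-bound kinases quantified by mass spectrometry across compound doses.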

UniProt O97240, sequence (O97240 whole entry): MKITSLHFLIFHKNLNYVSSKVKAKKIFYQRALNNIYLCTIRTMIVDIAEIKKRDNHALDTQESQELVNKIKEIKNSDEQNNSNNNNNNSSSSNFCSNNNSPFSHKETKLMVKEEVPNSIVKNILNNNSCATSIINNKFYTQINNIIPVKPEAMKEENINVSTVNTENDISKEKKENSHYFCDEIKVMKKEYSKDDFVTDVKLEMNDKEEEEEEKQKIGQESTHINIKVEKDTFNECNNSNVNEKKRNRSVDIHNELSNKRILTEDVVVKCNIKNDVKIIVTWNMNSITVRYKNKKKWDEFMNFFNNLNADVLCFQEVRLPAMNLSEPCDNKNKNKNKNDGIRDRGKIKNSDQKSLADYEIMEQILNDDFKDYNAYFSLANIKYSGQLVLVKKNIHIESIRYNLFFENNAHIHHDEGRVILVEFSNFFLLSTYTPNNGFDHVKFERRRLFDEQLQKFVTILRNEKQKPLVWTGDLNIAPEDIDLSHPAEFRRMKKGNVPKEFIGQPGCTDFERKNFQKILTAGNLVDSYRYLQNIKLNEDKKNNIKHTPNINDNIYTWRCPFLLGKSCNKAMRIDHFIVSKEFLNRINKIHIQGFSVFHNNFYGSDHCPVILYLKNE
UniProt P62344, sequence (P62344 whole entry, looked up): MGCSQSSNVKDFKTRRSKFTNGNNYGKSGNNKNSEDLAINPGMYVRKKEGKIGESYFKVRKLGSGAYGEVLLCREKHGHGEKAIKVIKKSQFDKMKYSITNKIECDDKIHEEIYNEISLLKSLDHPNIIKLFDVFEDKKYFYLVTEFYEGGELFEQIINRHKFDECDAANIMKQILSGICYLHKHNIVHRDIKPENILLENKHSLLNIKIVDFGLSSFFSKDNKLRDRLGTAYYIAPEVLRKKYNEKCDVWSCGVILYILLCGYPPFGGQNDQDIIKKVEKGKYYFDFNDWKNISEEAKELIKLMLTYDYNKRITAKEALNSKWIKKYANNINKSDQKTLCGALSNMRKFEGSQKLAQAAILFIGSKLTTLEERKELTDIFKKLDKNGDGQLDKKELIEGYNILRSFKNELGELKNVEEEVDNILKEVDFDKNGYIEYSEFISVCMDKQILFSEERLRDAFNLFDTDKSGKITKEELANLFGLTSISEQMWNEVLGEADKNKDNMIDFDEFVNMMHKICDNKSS
UniProt Q8I0U8, sequence (Q8I0U8 whole entry): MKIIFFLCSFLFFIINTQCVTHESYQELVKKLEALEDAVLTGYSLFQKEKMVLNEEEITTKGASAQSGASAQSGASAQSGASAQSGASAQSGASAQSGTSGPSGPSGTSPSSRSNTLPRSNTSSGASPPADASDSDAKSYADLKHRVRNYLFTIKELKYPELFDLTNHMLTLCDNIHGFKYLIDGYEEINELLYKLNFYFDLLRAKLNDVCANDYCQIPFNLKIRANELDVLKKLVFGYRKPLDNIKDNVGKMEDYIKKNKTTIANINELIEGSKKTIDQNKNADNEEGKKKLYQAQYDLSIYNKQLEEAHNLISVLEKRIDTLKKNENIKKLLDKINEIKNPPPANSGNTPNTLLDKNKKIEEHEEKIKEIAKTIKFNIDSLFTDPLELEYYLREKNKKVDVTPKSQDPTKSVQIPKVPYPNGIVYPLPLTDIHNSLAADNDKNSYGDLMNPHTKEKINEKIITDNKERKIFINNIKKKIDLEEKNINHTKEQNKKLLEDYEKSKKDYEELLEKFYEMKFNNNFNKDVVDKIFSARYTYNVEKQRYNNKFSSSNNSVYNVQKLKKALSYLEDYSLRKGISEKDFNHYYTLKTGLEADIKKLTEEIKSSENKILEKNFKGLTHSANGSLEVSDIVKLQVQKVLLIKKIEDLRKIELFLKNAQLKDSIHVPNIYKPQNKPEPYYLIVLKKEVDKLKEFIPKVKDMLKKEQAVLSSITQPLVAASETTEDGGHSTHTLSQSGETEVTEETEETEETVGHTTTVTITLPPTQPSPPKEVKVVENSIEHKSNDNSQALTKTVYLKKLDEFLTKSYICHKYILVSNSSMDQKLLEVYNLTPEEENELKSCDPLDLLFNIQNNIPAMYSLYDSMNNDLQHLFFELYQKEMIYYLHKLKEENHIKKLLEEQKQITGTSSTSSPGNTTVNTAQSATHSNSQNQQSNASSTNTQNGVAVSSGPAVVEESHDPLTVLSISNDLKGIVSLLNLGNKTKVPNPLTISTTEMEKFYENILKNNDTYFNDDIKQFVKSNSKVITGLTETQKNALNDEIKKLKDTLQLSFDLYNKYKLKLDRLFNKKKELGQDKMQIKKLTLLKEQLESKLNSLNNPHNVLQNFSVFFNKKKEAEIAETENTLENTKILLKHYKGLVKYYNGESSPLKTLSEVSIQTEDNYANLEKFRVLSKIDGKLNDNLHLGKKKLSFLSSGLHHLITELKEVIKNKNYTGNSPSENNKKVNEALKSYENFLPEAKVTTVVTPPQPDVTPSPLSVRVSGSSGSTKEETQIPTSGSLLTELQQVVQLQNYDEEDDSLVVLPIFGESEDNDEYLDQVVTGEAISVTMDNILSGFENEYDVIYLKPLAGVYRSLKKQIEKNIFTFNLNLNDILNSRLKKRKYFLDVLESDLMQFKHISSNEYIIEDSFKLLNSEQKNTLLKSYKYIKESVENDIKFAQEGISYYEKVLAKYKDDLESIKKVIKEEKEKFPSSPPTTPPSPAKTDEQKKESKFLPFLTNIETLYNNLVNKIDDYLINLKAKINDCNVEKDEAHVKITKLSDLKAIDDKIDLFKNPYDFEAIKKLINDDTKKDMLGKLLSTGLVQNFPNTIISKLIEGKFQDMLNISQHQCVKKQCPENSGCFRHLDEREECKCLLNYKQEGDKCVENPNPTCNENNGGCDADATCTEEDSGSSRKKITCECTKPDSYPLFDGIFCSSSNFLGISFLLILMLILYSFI
UniProt Q8ILP3, sequence (Q8ILP3 whole entry): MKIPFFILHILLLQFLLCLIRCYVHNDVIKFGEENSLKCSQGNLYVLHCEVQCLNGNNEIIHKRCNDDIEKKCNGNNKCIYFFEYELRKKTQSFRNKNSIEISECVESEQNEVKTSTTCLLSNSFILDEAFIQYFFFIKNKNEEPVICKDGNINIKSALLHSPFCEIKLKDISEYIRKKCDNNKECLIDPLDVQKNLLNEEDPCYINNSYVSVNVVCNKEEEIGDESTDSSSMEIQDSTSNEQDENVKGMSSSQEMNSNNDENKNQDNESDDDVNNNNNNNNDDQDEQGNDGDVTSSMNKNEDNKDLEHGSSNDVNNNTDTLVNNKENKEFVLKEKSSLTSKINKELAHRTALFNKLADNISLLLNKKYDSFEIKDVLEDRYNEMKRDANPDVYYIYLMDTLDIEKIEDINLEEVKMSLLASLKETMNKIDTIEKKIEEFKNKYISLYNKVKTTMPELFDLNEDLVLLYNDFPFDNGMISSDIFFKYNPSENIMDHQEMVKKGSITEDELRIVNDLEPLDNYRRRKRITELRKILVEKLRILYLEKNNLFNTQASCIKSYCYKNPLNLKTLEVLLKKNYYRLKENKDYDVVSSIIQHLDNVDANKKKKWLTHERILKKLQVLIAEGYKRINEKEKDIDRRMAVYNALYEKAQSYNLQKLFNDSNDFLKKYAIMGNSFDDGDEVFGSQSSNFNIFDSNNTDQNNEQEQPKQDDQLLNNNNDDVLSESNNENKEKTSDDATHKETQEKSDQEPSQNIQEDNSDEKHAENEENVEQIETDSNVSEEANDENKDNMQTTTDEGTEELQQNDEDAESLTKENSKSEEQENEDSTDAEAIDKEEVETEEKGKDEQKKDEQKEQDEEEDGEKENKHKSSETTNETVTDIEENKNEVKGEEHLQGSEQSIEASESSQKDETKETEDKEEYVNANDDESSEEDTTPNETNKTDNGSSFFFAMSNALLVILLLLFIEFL
UniProt Q7KQL8, sequence (Q7KQL8 whole entry): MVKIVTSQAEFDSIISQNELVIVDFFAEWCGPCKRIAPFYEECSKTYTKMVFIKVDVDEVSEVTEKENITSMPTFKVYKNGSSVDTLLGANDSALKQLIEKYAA
UniProt Q8I2J3, sequence (Q8I2J3 whole entry): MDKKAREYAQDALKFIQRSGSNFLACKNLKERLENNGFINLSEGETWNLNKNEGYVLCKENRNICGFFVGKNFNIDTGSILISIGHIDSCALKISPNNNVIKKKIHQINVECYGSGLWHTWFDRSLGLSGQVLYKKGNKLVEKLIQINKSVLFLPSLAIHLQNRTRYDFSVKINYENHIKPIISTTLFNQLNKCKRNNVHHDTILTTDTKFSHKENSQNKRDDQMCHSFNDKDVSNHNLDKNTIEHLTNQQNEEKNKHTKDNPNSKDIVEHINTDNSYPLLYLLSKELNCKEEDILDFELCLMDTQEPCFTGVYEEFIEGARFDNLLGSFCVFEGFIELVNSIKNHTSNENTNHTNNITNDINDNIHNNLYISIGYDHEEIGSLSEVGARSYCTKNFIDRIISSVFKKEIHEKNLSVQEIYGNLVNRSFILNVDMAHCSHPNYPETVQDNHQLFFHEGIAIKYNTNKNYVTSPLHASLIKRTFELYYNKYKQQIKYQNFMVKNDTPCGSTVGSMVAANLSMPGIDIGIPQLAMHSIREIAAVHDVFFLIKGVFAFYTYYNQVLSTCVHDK
UniProt Q7KQM0, sequence (Q7KQM0 whole entry): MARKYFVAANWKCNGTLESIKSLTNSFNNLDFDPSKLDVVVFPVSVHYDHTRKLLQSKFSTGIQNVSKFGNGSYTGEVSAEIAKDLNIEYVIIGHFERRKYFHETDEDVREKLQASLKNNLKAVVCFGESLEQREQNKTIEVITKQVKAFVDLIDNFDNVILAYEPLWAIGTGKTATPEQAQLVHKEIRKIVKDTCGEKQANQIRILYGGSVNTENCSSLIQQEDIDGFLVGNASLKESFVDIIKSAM
UniProt Q8I2J4, sequence (Q8I2J4 whole entry): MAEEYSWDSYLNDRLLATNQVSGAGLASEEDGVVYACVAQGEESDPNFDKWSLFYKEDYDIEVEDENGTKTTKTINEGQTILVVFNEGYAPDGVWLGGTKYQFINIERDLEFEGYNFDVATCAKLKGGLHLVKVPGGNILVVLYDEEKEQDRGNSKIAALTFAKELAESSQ

O=c1[nH]c2ccc(Cl)cc2c(NC2CN3CCC2CC3)c1-c1nc2ccccc2[nH]1 (stereo unspecified) [CHIR-124]
5.04: [26]
6.07: [15]
> 7.08: [14]
< 4.70: all other assays above
